# Reference: article PMC9995496, “A screen for MeCP2-TBL1 interaction inhibitors using a luminescence-based assay” (Scientific Reports, 2023)
# Counter-ions that a name gives are not always drawn. Bridge positions count the residues as written; N and C are the ends. Square brackets hold non-standard residues; d marks the D form. Peptide text beside a SMILES is read from it. hArg = N=C(N)NCCCC[C@H](N)C(=O)O; Mpa = O=C(O)CCS
# Tested on: PRKACA-PRKAR2A interaction (SmBiT-PRKACA / LgBiT-PRKAR2A), protein kinase A
# Design: NanoLuc complementation counter-screen in cell extract, PRKACA with PRKAR2A, loss of luminescence, detects NanoLuc interference
# Settings: counter-screen for NanoLuc interference, 0.5 h, 20 µM, inhibitor, Inh (PKA)
row,Inh (PKA),SMILES
1,0.7443%,"O=C(c1ccccc1)c1ccc2n1CCC2C(=O)O (stereo not drawn) [UM0142511:01, Ketorolac]"
2,9.074%,"O=C(O)Cc1ccccc1Nc1c(Cl)cccc1Cl [UM0142522:01, Diclofenac]"

# Same assay, conditions: counter-screen for NanoLuc interference; 0.5 h, 20 µM; inhibitor
row,SMILES,Inh (PKA)
1,"CCCCCCCc1ccc(CCc2cccc(O)c2C(=O)O)cc1 [UM0142505:01, MG 149]",11.49%
2,"CC(C)NCC(O)c1ccc(NS(C)(=O)=O)cc1 (stereo not drawn) [UM0142510:01, Sotalol hydrochloride]",-0.9356%
3,"COCCCOc1ccnc(C[S+]([O-])c2nc3ccccc3[nH]2)c1C (stereo not drawn) [UM0142515:01, Rabeprazole]",0.62%
4,"C#C[C@]1(O)CC[C@H]2[C@@H]3CCC4=CC(=O)CC[C@@H]4[C@H]3C(=C)C[C@@]21CC [UM0142516:01, Etonogestrel]",8.15%
5,"CC(C)C(=O)OCC(=O)[C@@]12O[C@H](C3CCCCC3)O[C@@H]1C[C@H]1[C@@H]3CCC4=CC(=O)C=C[C@]4(C)[C@H]3[C@@H](O)C[C@@]12C [UM0142517:01, Ciclesonide]",3.161%
6,"N=C(N)NCCCC[C@@H]1NC(=O)CCSSC[C@@H](C(N)=O)NC(=O)[C@@H]2CCCN2C(=O)[C@H](Cc2c[nH]c3ccccc23)NC(=O)[C@H](CC(=O)O)NC(=O)CNC1=O [UM0142520:01, Eptifibatide] ([Mpa][hArg]GDWPC-NH2; disulfide 1-7)",-0.06094%
7,"O=C1CCCC(=O)C1C(=O)c1ccc(C(F)(F)F)cc1[N+](=O)[O-] [UM0142524:01, Nitisinone]",2.396%
8,"CC(=O)Nc1ccc(O)cc1 [UM0142525:01, Acetaminophen]",-0.5181%
9,"O=C(COc1ccc(Cl)cc1)N[C@H]1CC[C@H](NC(=O)COc2ccc(Cl)cc2)CC1 [UM0142547:01, ISRIB (trans-isomer)]",0.7821%
10,"CC(C)[C@H](N)C(=O)N1CCC[C@H]1B(O)O [UM0142552:01, Talabostat mesylate]",-1.148%
11,"CN1CCN(c2ccc(OC(F)(F)F)c(Nc3ncc4c(n3)-c3c(c(C(N)=O)nn3CCO)CC4)c2)CC1 [UM0142553:01, NMS-1286937]",23.22%
12,"Cc1c(F)cc(C(=O)NC2CC2)cc1-c1ccc(C(=O)NCC(C)(C)C)cn1 [UM0142557:01, Losmapimod]",0.7266%
13,"Cc1ccc2nc(NCCN)c3ncc(C)n3c2c1 [UM0142559:01, BMS-345541(free base)]",1.467%
14,"O=C(NCc1cccc(O)c1)c1cc2cc(F)ccc2[nH]1 [UM0142568:01, KX1-004]",5.75%
15,"O=S(=O)(CC1CS1)c1ccc(Oc2ccccc2)cc1 (stereo not drawn) [UM0142583:01, SB-3CT]",17.13%
16,"N=C1NC(=O)/C(=C/c2ccc(O)cc2)S1 [UM0142634:01, Mirin]",13.24%

# The remaining lines, values ahead:
row,Inh (PKA),SMILES
1,40.51%,"CCC(Sc1nnc2c(n1)[nH]c1ccccc12)C(=O)N1c2ccccc2Sc2ccccc21 (stereo not drawn) [UM0142503:01, Inauhzin]"
2,-0.7534%,"CC(=O)O[C@H]1Cc2ccccc2N(C(N)=O)c2ccccc21 [UM0142518:01, Eslicarbazepine acetate]"
3,4.065%,"COc1cccc(CCc2ccccc2OCC(CN(C)C)OC(=O)CCC(=O)O)c1 (stereo not drawn) [UM0142521:01, Sarpogrelate hydrochloride]"
4,43.25%,"O=C(O)c1ccc(N2C(=O)/C(=C\c3ccc(-c4ccc([N+](=O)[O-])cc4)o3)C=C2c2ccccc2)cc1 [UM0142546:01, 4E1RCat]"
5,2.476%,"CCCCN(Cc1ccc(C(=O)NO)cc1)C(=O)Nc1ccccc1 [UM0142549:01, Nexturastat A]"
6,10.94%,"Cc1ccc(CNc2ncnc3ccc(-c4ccc(CO)o4)cc23)o1 [UM0142550:01, ML167]"
7,41.79%,"CN(C)c1cccc(-c2c3c(=O)n(-c4ccccc4Cl)[nH]c3cc(=O)n2C)c1 [UM0142578:01, GKT137831]"
8,8.361%,"CN(CC(=O)N(Cc1ccc(C2CCCCC2)cc1)c1ccc(C(=O)O)cc1)S(=O)(=O)c1c(F)c(F)c(F)c(F)c1F [UM0142580:01, SH-4-54]"
9,3.619%,"CN(C)CCCNC(=O)c1ccc(-c2cc(O)c3ncccc3c2)cc1 [UM0142607:01, ML324]"
